Laboratory results from ChEMBL document CHEMBL5226369, “Tetracyclic Steroids Bearing a Bicyclo[4.4.1] Ring System as Potent Antiosteoporosis Agents from the Deep-Sea-Derived Fungus Rhizopus sp. W23” (J Nat Prod, 2023).
Active and inactive are the calls of the source. No cut-off for these calls is given here.

Columns and labels:
[1] = tested on: PANC-1; test: Antiproliferative activity against human PANC-1 cells by MTT assay; assay type: functional, cell-based
[2] = tested on: HepG2; test: Antiproliferative activity against human HepG2 cells by MTT assay; assay type: functional, cell-based
[3] = tested on: BGC-823; test: Antiproliferative activity against human BGC-823 cells by MTT assay; assay type: functional, cell-based
[4] = tested on: U2OS; test: Antiproliferative activity against human U2OS cells by MTT assay; assay type: functional, cell-based
[5] = Antiproliferative activity against human SKGT4 cells by MTT assay; assay type: functional, cell-based
[6] = tested on: A-375; test: Antiproliferative activity against human A-375 cells by MTT assay; assay type: functional, cell-based
[7] = tested on: NCI-H460; test: Antiproliferative activity against human NCI-H460 cells by MTT assay; assay type: functional, cell-based
[8] = tested on: MDA-MB-231; test: Antiproliferative activity against human MDA-MB-231 cells by MTT assay; assay type: functional, cell-based
[9] = tested on: NCI-H1299; test: Antiproliferative activity against human NCI-H1299 cells by MTT assay; assay type: functional, cell-based
[10] = tested on: HCT-116; test: Antiproliferative activity against human HCT-116 cells by MTT assay; assay type: functional, cell-based
[11] = Inhibition of adipogenic differentiation in C57BL/6J mouse BMSC cells at 20 uM measured after 6 days by Oil Red O staining based light microscopy; assay type: functional; details: 144 h, time 6 day
[12] = tested on: MCF7; test: Antiproliferative activity against human MCF7 cells by MTT assay; assay type: functional, cell-based
[13] = tested on: HL-60; test: Antiproliferative activity against human HL-60 cells by MTT assay; assay type: functional, cell-based
[14] = tested on: K562; test: Antiproliferative activity against human K562 cells by MTT assay; assay type: functional, cell-based
[15] = tested on: A-431; test: Antiproliferative activity against human A-431 cells by MTT assay; assay type: functional, cell-based
[16] = tested on: A549; test: Antiproliferative activity against human A549 cells by MTT assay; assay type: functional, cell-based
[17] = tested on: BMSC; test: Anti-osteoporosis activity against C57BL/6J mouse BMSC cells assessed as increase in matrix mineralization of osteoblasts at 20 uM incubated for 14 days by Alizarin Red S staining based analysis; assay type: functional, cell-based; details: time 14.0 day
[18] = (§1) Anti-osteoporosis activity against C57BL/6J mouse BMSC cells assessed as increase in osteogenic mineralization incubated for 14 days by Alizarin Red S staining based analysis; assay type: functional; details: 336 h, time 14 day, read-out: MEC
[19] = tested on: BMSC; test: as §1; assay type: functional; details: time 14.0 day
[20] = tested on: PC-3; test: Antiproliferative activity against human PC-3 cells by MTT assay; assay type: functional, cell-based
[21] = tested on: KYSE-450; test: Antiproliferative activity against human KYSE-450 cells by MTT assay; assay type: functional, cell-based
[22] = Antiproliferative activity against human QGY-7701 cells by MTT assay; assay type: functional, cell-based; details: QGY7701
[23] = Inhibition of adipogenic differentiation in C57BL/6J mouse BMSC cells at 5 uM measured after 6 days by Oil Red O staining based light microscopy; assay type: functional; details: 144 h, time 6 day
[24] = biological target: Protein smoothened (Homo sapiens, UniProt Q99835); test: Agonist activity at SMO receptor (unknown origin)
Chain of Protein smoothened (Q99835 whole entry): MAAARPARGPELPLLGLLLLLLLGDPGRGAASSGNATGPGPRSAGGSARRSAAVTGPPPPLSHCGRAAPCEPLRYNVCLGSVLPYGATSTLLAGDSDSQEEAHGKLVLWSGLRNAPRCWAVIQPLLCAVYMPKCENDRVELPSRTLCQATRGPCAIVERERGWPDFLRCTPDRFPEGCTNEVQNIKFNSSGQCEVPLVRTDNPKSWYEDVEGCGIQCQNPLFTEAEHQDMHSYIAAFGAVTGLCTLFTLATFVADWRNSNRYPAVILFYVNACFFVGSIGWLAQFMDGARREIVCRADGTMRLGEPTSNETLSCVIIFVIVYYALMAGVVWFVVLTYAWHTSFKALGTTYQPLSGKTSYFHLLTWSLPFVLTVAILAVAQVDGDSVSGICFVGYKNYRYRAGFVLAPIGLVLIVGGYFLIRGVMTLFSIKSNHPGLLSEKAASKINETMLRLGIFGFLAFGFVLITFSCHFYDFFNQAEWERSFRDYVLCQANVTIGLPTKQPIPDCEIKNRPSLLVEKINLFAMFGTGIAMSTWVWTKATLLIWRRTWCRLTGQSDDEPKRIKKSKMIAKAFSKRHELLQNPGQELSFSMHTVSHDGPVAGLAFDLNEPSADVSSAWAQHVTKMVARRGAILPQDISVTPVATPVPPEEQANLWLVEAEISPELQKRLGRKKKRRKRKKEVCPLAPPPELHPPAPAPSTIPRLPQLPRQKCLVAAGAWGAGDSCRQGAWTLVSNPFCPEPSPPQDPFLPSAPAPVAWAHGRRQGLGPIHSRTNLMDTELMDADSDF

| SMILES | IC50 [1] [µM] | IC50 [2] [µM] | IC50 [3] [µM] | IC50 [4] [µM] | IC50 [5] [µM] | IC50 [6] [µM] | IC50 [7] [µM] | IC50 [8] [µM] | IC50 [9] [µM] | IC50 [10] [µM] | IC50 [12] [µM] | IC50 [13] [µM] | IC50 [14] [µM] | IC50 [15] [µM] | IC50 [16] [µM] | Activity [17] | minimal effective concentration [18] [µM] | IC50 [20] [µM] | IC50 [21] [µM] | IC50 [22] [µM] | further results |
| --- | --- | --- | --- | --- | --- | --- | --- | --- | --- | --- | --- | --- | --- | --- | --- | --- | --- | --- | --- | --- | --- |
| C/C(=C/[C@H](O)[C@H](C)O)[C@H]1CC[C@H]2C3=CC(=O)[C@H]4CC(=CC[C@H](O)C4)[C@H]3CC[C@]12C | > 20 | > 20 | > 20 | > 20 | > 20 | > 20 | > 20 | > 20 | > 20 | > 20 | > 20 | > 20 | > 20 | > 20 | > 20 | Active | 20 | > 20 | > 20 | > 20 | inhibition at 20 µM [11]: 65%; Activity [19]: Dose-Dependent Effect |
| C/C(=C\[C@@H](O)[C@H](C)O)[C@H]1CC[C@H]2C3=CC(=O)[C@H]4CC(=CC[C@H](O)C4)[C@H]3CC[C@]12C [NEOCYCLOCITRINOL C] | > 20 | > 20 | > 20 | > 20 | > 20 | > 20 | > 20 | > 20 | > 20 | > 20 | > 20 | > 20 | > 20 | > 20 | > 20 | Active | 5 | > 20 | > 20 | > 20 | inhibition at 5 µM [23]: 78%; Activity [19]: Dose-Dependent Effect |
| c1ccc2c(Oc3nc(Nc4ccc(N5CCOCC5)cc4)c4ncn(C5CCCCC5)c4n3)cccc2c1 [PURMORPHAMINE] | – | – | – | – | – | – | – | – | – | – | – | – | – | – | – | – | – | – | – | – | EC50 [24]: 1 µM |
| CC(=O)OC(/C=C(\C)[C@H]1CC[C@H]2C3=CC(=O)[C@H]4CC(=CC[C@H](O)C4)[C@H]3CC[C@]12C)C(C)O (stereo partly drawn) | > 20 | > 20 | > 20 | > 20 | > 20 | > 20 | > 20 | > 20 | > 20 | > 20 | > 20 | > 20 | > 20 | > 20 | > 20 | – | – | > 20 | > 20 | > 20 | – |
